In paper PMC11434868, “Synthesis and Antiproliferative Effect of 3,4,5-Trimethoxylated Chalcones on Colorectal and Prostatic Cancer Cells” (Pharmaceuticals, 2024):
Where two headings read alike, the source gives them in different places.

Experiments:
HCT116 = experiment: MTT assay, antiproliferative effect on HCT116; assay type: cell-based; conditions: Homo sapiens
Experimental: (§1) Human CRC (HCT116 and HT-29) and PCa (DU145 and PC3) cell lines were purchased from the American Type Culture Collection (ATCC—LGC Standards, Molsheim, France). All cells were grown in RPMI 1640 medium supplemented with 10% FBS, 1% L-glutamine, 100 U/mL penicillin, and 100 μg/mL streptomycin. Cultures were maintained in a humidified atmosphere containing 5% CO2 at 37 °C. Cells were seeded in 75 cm^2 culture flasks at 1.2 × 10^4 cells/cm^2 for HCT116, DU145, and PC3 cells, and 2.0 × 10^4 for HT-29 cells. Cells were grown for 24 h in culture medium prior to exposure or not to obtain the synthesized compounds. Stock solutions (10^−2 M in DMSO) of each compound were diluted in culture medium to obtain appropriate final concentrations.
(§2) • (a) MTT assay: The antiproliferative effect of all compounds was determined using MTT assay (a metabolic activity test). Briefly, cells were seeded in 96-well culture plates at 4 × 10^3 cells/well for HCT116, PC3, and DU145 cells and 6 × 10^3 cells/well for HT-29 cells (100 µL/well), and grown for 24 h in culture medium prior to exposure or not to obtain compounds 1–15 with concentrations ranging from 5 nM to 50 μM. After 24 and 48 h of treatment, MTT (5 mg/mL in PBS) was added and incubated for another 3 h. MTT was then removed from the wells before adding 100 μL/well of DMSO. The optical density was detected with a microplate reader (Multiskan FC, Thermoscientific, Bordeaux, France) at 550 nm and cell viability was expressed as a percentage of each treatment condition compared to control cells. IC50 values were calculated for all compounds from the dose–response curve. Data are expressed as the arithmetic means ± standard error of the mean (SEM) of separate experiments. All experiments were performed at least in triplicate. • (b) Trypan blue dye exclusion method: Cells were grown for 24 h then treated with compounds 10 and 13 at indicated concentrations. After 48 h of treatment, cells were trypsinized and resuspended in complete medium. Each sample was mixed with Trypan blue solution (0.14% in HBSS, Invitrogen-GIBCO, ThermoFisher, Illkirch, France). Colored (non-viable) and dye-excluding (viable) cells were counted with the LUNA-II automated cell Counter (Logos Biosystems; MC2, Aubière, France). The control was normalized to 100% including viable and dead cells. The results indicated on the histograms were expressed as the percentage of cells compared to the control. IC50 values were determined from the percentages of viable cells compared to the control.

HT-29 = experiment: MTT assay, antiproliferative effect on HT-29; assay type: cell-based, human
Experimental: as §1, §2

DU145 = experiment: MTT assay, antiproliferative effect on DU145; assay type: cell-based; conditions: Homo sapiens
Experimental: as §1, §2

PC3 = experiment: MTT assay, antiproliferative effect on PC3; assay type: cell-based; conditions: Homo sapiens
Experimental: as §1, §2

[1] = system: cellular microtubules in HeLa cells; experiment: Quantitative assay of the cellular microtubule content (immunoluminescence); assay type: cell-based; conditions: Homo sapiens, 0.5 h, 30 min incubation
Experimental: The assay was realized as described by Laisne et al.. Briefly, 7500 HeLa cells were seeded in 96-well microplates (#655086, Greiner bioOne, Courtaboeuf, France) in 100 µL of complete medium per well and then incubated at 37 °C in 5% CO2 for 24 h. Cells were then treated for 30 min at 37 °C with the compounds at concentrations ranging from 0.1 to 1000 µM (1 microplate per molecule, 1 concentration per column), with 0.1% DMSO used as […] (6 wells per microplate). After medium aspiration, treated cells were permeabilized for 10 min using 100 µL per well of warmed (37 °C) OPT buffer (80 mM Pipes, 1 mM EGTA, 1 mM MgCl2, 0.5% Triton X-100, and 10% glycerol, pH 6.8). Cells were fixed overnight at room temperature using 100 µL per well of 4% formaldehyde (Sigma Aldrich, #252549, Saint-Quentin-Fallavier, France) in PBS. Cells were washed 3 times in PBS, 0.1% Tween-20 (100 µL per well), then primary anti-alpha-tubulin antibody (clone α3A1), 1:5000 in PBS 2% Bovine Serum Albumin (BSA), was added for 45 min. Cells were washed twice again and secondary anti-mouse antibody coupled to HRP (1:2000 in PBS 2% BSA, #715-035-150, Jackson Immuno-Research Laboratories, Cambridgeshire, UK) was added for 45 min. Then, cells were washed again with PBS and 100 µL of ECL substrate (#170-5061, Bio-Rad Laboratories Inc., Hercules, CA, USA) was injected in each well using the FLUOstar OPTIMA Microplate Reader (BMG Lab technology, Champagny-sur-Marne, France). The luminescent signal was read immediately after ECL injection. IC50 values were calculated using GraphPad Prism software (10.3.1 version) and are presented in the text as means ± SEM of three independent experiments.

HeLa cells microtubules = experiment: Tubulin immunofluorescence; assay type: cell-based; conditions: 30 min, chalcone 8 at 1 µM or chalcone 2 at 200 µM
Experimental: Cells at a density of 20,000 cells per well were grown for 48 h on glass coverslips placed in a 24-well microplate. When cells reached 70% confluence, the medium was replaced with a fresh one supplemented with DMSO (0.005% or 0.01%) or the test compound at 1 or 200 µM. After 30 min of incubation, cells were permeabilized in warm OPT buffer (80 mmol/L Pipes, […], 0.5% Triton X-100 and 10% Glycerol, pH 6.8) and fixed for 6 min in −20 °C methanol (Carlo ERBA SAS, #414855, Val-de-Reuil, France). After washing and saturation with a specific blocking buffer (3% BSA), 10% Goat serum (Gibco Invitrogen, #16210064, Carlsbad, CA, USA) in PBS, cells were incubated for 45 min at room temperature (RT) with anti-alpha-tubulin antibody (clone α3A1 in blocking buffer). Cells were washed twice again and subsequently incubated with Alexa 488 conjugated anti-mouse antibody (1:500 in blocking buffer, #115-545-166, Jackson immune-research laboratory, Cambridgeshire, UK) and DNA was stained with Dapi which was included in mounting media (Dapi fluoromount, #0100-20, Clinisciences, France). Images were captured with a Zeiss AxioimagerM2 microscope (Zeiss microscopy, Rueil Malmaison, France) equipped with the acquisition software AxioVision (4.8 version, Marly-le-Roi, France).

[2] = system: human PCa (DU145 and PC3) cell lines; experiment: MTT assay, summary statements for PCa cells; assay type: cell-based
Experimental: as §1, §2

[3] = HCT-116, 24 h, read-out: IC50 HCT116 24 h
[4] = HCT-116, 48 h, read-out: IC50 HCT116 48 h
[5] = 48 h, read-out: IC50 HT-29 48 h
[6] = Homo sapiens, HT-29, 24 h, 24 h, read-out: IC50 HT-29 24 h
[7] = Homo sapiens, HT-29, 48 h, 48 h, read-out: IC50 HT-29 48 h
[8] = DU-145, 24 h, read-out: IC50 DU145 24 h
[9] = DU-145, 48 h, read-out: IC50 DU145 48 h
[10] = PC-3, 24 h, read-out: IC50 PC3 24 h
[11] = PC-3, 48 h, read-out: IC50 PC3 48 h
[12] = read-out: IC50 depolymerization of cellular microtubules

Row | IC50 (HCT116; [3]) [µM] | IC50 (HCT116; [4]) [µM] | IC50 (HT-29; [5]) [µM] | IC50 (HT-29; [6]) [µM] | IC50 (HT-29; [7]) [µM] | IC50 (DU145; [8]) [µM] | IC50 (DU145; [9]) [µM] | IC50 (PC3; [10]) [µM] | IC50 (PC3; [11]) [µM] | IC50 [1, 12] [µM] | IC50 ([2]; DU145 and PC3, read-out: IC50 towards PCa cells) [µM] | IC50 ([2]; Homo sapiens, DU-145, DU145 and PC3, text summary, read-out: IC50 towards PCa cells) [µM] | IC50 ([1]; no unit in the picture, read-out: IC50 microtubule contents (printed in Figure 8)) [µM] | IC50 ([2]; Homo sapiens, DU-145, DU145 and PC3, text summary, read-out: IC50 against PCa cells) [µM] | Structure (SMILES) | state of tubulin / microtubules by immunofluorescence (HeLa cells microtubules)
1 | 0.22 ± 0.01 | 0.11 ± 0.02 | 8.11 ± 0.5 | 8.03 ± 0.18 | 8.1 | 0.036 ± 0.002 | 0.031 ± 0.001 | 0.021 ± 0.001 | 0.02 ± 0.001 | 0.289 ± 0.045 | ~0.02 | 0.017 to 0.031 |  |  | COc1ccc(/C=C/C(=O)c2cc(OC)c(OC)c(OC)c2)cc1O [chalcone 8, (E)-3-(3-hydroxy-4-methoxyphenyl)-1-(3,4,5-trimethoxyphenyl)prop-2-en-1-one] | tubulin is mainly in its depolymerized form
2 | 4.23 ± 0.11 | 2.66 ± 0.1 | 7.34 ± 0.22 | 9.87 ± 0.44 | 7.3 | 3.47 ± 0.24 | 2.97 ± 0.15 | 3.76 ± 0.28 | 3.44 ± 0.11 | 106 ± 4.7 |  |  | 106 ± 4.69 | ~3 | COc1cc(C(=O)/C=C/c2cccc(O)c2)cc(OC)c1OC [chalcone 2, (E)-3-(3-hydroxyphenyl)-1-(3,4,5-trimethoxyphenyl)prop-2-en-1-one] | tubulin is mainly in its depolymerized form
